Measured values as given in patent publication US6362236B1, “Inhibition of lipoprotein oxidation” (Warner-Lambert Company, priority 1997, dated 2002).

Assays:
[1] = test system: HDL-associated paraoxonase; assay: HDL-associated paraoxonase activity after CuSO4-induced HDL oxidation; format: biochemical, human; details: for Paraoxonase Specific Activity: after CuSO4-induced HDL oxidation, before incubation 50±3; for protection of HDL-associated paraoxonase: HDL oxidized with CuSO4, versus HDL oxidized without drug
Excerpt: . One unit of paraoxonase activity produces 1 nmol of p-nitrophenol per minute.

HDL = assay: CuSO4-induced HDL oxidation; details: for CuSO4-Induced HDL Oxidation, MDA / CuSO4-Induced HDL Oxidation, Peroxides: 10 μM drug, 10 μM CuSO4, 4 hours at 37° C.; for CuSO4-Induced HDL Oxidation, MDA: Control 9.1 ± 0.1; for CuSO4-Induced HDL Oxidation, Peroxides: Control 122 ± 14; for inhibition of HDL oxidation in the presence of CuSO4: 10 μM CuSO4
VLDL [2] = assay: AAPH-induced VLDL oxidation; details: for inhibition of VLDL oxidation (TBARS), AAPH oxidative system: 10 μM compound, 4 hours at 37° C.; for VLDL-associated peroxide content, AAPH system: control VLDL 2169±329
VLDL [3] = assay: Copper ion (CuSO4)-induced VLDL oxidation; details: for inhibition of VLDL oxidation (TBARS), copper ion oxidative system: 10 μM compound, 4 hours at 37° C.; for VLDL-associated peroxide content, CuSO4 system: control VLDL 1818±333
[4] = Free radical scavenging capacity (DPPH assay); details: 20 μM; after 300 seconds of incubation
Procedure: Free radical scavenging capacity—The free radical scavenging capacities of the drugs were analyzed by the 1,1-diphenyl-2-picryl-hydrazyl (DPPH) assay. Each drug (20 μM) was mixed with 3 mL of 0.1 nmol DPPH/1 (in ethanol). The time course of the change in the optical density at 517 nm was then kinetically monitored.

LDL [5] = assay: LDL oxidation in all oxidative systems studied (CuSO4, AAPH, J-774A.1 macrophages), summary statements; format: biochemical, human; details: for inhibition of lipid peroxidation induced by copper ions, AAPH or J-774A.1 macrophages: pharmacological concentrations, summary over systems; for inhibition of LDL oxidation in all oxidative systems studied (in words): CuSO4, AAPH and J-774A.1 macrophage systems
LDL [6] = assay: Copper ion (CuSO4)-induced LDL oxidation; format: biochemical, human; details: for inhibition of LDL oxidation measured by the TBARS assay, CuSO4 system: 10 μM compound, 10 μM CuSO4, 4 hours at 37° C., LDL 100 μg of protein/mL; for LDL-associated peroxides content, CuSO4 system: control LDL 710±51
LDL [7] = assay: AAPH (free radical generator)-induced LDL oxidation; format: biochemical, human; details: for inhibition of LDL oxidation measured by the TBARS assay, AAPH system: 10 μM compound, 5 mM AAPH, 4 hours at 37° C.; for LDL-associated peroxides content, AAPH system: control LDL 990±89
[8] = test system: J-774 A.1 murine macrophages-like cell line; details: 10 μM compound; J-774 A.1 cells, 2 μM CuSO4, 20 hours
Procedure: The macrophages were grown in Dulbecco's Modified Eagles Medium (DMEM) supplemented with 5% heat inactivated fetal calf serum (FCS). For the lipoprotein oxidation studies, cells (1×10^6/35 mm dish) were incubated with LDL (100 μg of protein/mL) in RPMI medium (without phenol red) in the presence of 2 μM CuSO4 for 20 hours at 37° C. in the incubator. Control LDL was also incubated in a cell-free system under the same conditions. At the end of the incubation period, the extent of LDL oxidation was measured in the medium (after centrifugation at 1000×g for 10 minutes) by the TBARS assay. Cell-mediated oxidation of LDL was calculated by subtracting the values obtained in the cell-free system from those obtained with the cells.

VLDL [9] = assay: Lipoprotein electrophoresis of VLDL after copper ion-induced oxidation; format: biochemical, human; details: 10 μM CuSO4
Procedure: Lipoprotein electrophoresis—Lipoproteins (100 μg protein/mL) were incubated without or with the drugs followed by oxidation in the presence of 10 μM CuSO4. Then, electrophoresis of the lipoproteins was performed on 1% agarose using a Hydragel-Lipo kit (Sebia, France).

[10] = Procedure: For the lipid peroxidation experiments, 500 μL of membrane vesicles were enriched with dilinoleoyl phosphatidylcholine (DLPC) at a concentration of 1.0 mg DLPC/mL. […] The extent of lipid peroxidation in each sample was determined by a spectrophotometric assay for lipid peroxides in serum lipoproteins using a color reagent known as CHOD-iodide (Merck, Darmstadt, FRG, Merck Cat. No. 14106). The color reagent has the following composition:
The concentration of triiodide formed was measured spectrophotometrically according to the formula (L=lipoprotein) [formula]
To each of the withdrawn aliquots of membrane vesicles was added 1.0 mL of the CHOD color reagent, and the sample was incubated in the absence of light for 4 hours. […] Lipid peroxide formation was measured in triplicate and values were expressed as mean±SD. The significance of differences between results from different experimental conditions was tested using the two-tailed student t-test.

Row | Compound | Paraoxonase Specific Activity ([1]; Table 1, Control 26 ± 2) [nmoL/mg HDL Protein/min] | CuSO4-Induced HDL Oxidation, MDA (HDL; Table 1) [nmoL/mg HDL Protein] | CuSO4-Induced HDL Oxidation, Peroxides (HDL; Table 1) [nmoL/mg HDL Protein] | inhibition of VLDL oxidation (TBARS), AAPH oxidative system (VLDL [2]) | inhibition of VLDL oxidation (TBARS), copper ion oxidative system (VLDL [3]) | reduction in the absorbance at 517 nm (DPPH assay) [4] | inhibition of lipid peroxidation induced by copper ions, AAPH or J-774A.1 macrophages (LDL [5]) | protection of HDL-associated paraoxonase [1] | inhibition of HDL oxidation in the presence of CuSO4 (HDL) | inhibition of LDL oxidation measured by the TBARS assay, CuSO4 system (LDL [6]) [%] | LDL-associated peroxides content, CuSO4 system (LDL [6]) [nmol/mg LDL protein] | inhibition of LDL oxidation measured by the TBARS assay, AAPH system (LDL [7]) [%] | LDL-associated peroxides content, AAPH system (LDL [7]) [nmol/mg LDL protein] | inhibition of LDL oxidation measured by the TBARS assay, macrophage system [8] [%] | VLDL-associated peroxide content, AAPH system (VLDL [2]) [nmol VLDL protein] | VLDL-associated peroxide content, CuSO4 system (VLDL [3]) [nmol/mg VLDL protein] | inhibition of LDL oxidation in all oxidative systems studied (in words) (LDL [5]) | further results
1 | CC(C)c1c(C(=O)Nc2ccccc2)c(-c2ccccc2)c(-c2ccc(F)cc2)n1CC[C@@H](O)C[C@@H](O)CC(=O)O [atorvastatin, reference compound] | 29 ± 4 | 9.6 ± 0.5 | 122 ± 15 | no effect | no effect | not by atorvastatin | not inhibited | – | – | – | – | – | – | – | – | – | – | –
2 | Cc1ccc(C)c(OCCCC(C)(C)C(=O)O)c1 [gemfibrozil, reference compound] | – | – | – | – | – | not gemfibrozil itself | not inhibited | no effect | no effect | – | – | – | – | – | – | – | – | lag time for the initiation of LDL oxidation (conjugated dienes formation) (LDL [6]; gemfibrozil experiment, LDL alone 60±9): 60 ± 9 min; Paraoxonase Specific Activity ([1]; Table 2, Control 26 ± 3): 27 ± 5 nmoL/mg HDL Protein/min; CuSO4-Induced HDL Oxidation, MDA (HDL; Table 2): 8.2 ± 0.4 nmoL/mg HDL Protein; CuSO4-Induced HDL Oxidation, Peroxides (HDL; Table 2): 134 ± 13 nmoL/mg HDL Protein
3 | CC(C)c1c(C(=O)Nc2ccccc2O)c(-c2ccccc2)c(-c2ccc(F)cc2)n1CC[C@@H](O)C[C@@H](O)CC(=O)O [ortho-hydroxy metabolite, ortho-hydroxy atorvastatin] | 40 ± 4 | 0.2 ± 0.1 | 9 ± 1 | 43% | 79% | 37% | – | 54% | completely inhibited | 73 | 192±15 | 44 | 554±32 | 50 | 1228±210 | 242±22 | inhibited | inhibitory effect on copper ion-induced LDL oxidation (TBARS) (LDL [6]; metabolite I of gemfibrozil 3 μM, ortho-hydroxy metabolite of atorvastatin 4 μM, alone or in combination, 10 μM CuSO4, 4 hours): 43%; lipoprotein electrophoretic migration of oxidized VLDL (VLDL [9]): reduce lipoprotein electrophoretic migration
4 | CC(C)c1c(C(=O)Nc2ccc(O)cc2)c(-c2ccccc2)c(-c2ccc(F)cc2)n1CC[C@@H](O)C[C@@H](O)CC(=O)O [para-hydroxy metabolite, para-hydroxy atorvastatin] | 33 ± 3 | 4.5 ± 0.3 | 65 ± 9 | 16% | 37% | 28% | – | 27% | about 50% | 60 | 284±13 | 34 | 624±38 | 46 | 1819±228 | 1088±310 | inhibited | inhibition of lipid peroxidation in membrane vesicles ([10]; 10.0 μM compound): 80%; comparative antioxidant potency versus Vitamin E and probucol ([10]; FIG. 12): significantly more active; antioxidant activity under atherosclerotic-like conditions of elevated membrane cholesterol ([10]; FIG. 13): increased; levels of lipid peroxidation inhibited ([10]; at concentrations as low as 10.0 μM): > 10^2 μM
5 | vitamin E | – | – | – | – | – | 95% | – | – | – | – | – | – | – | – | – | – | – | –
